Experimental data: patent US9695155B2, “Herbicidal substituted pyrimidinyloxy benzene compounds” (E. I. DU PONT DE NEMOURS AND COMPANY, priority 2013, dated 2017)

Key:
soybean = assay: Test E postemergence; format: in vivo, Glycine max; conditions: Glycine max, post-emergence
From the text: (§1) Seeds of plant species selected from corn (Zea mays), soybean (Glycine max), velvetleaf (Abutilon theophrasti), lambsquarters (Chenopodium album), wild poinsettia (Euphorbia heterophylla), palmer pigweed (Amaranthus palmeri), waterhemp (common waterhemp, Amaranthus rudis), surinam grass (Brachiaria decumbens), large (Lg) crabgrass (Digitaria sanguinalis), Brazilian crabgrass (Digitaria horizontalis), fall panicum (Panicum dichotomiflorum), giant foxtail (Setaria faberii), green foxtail (Setaria viridis), goosegrass (Eleusine indica), johnsongrass (Sorghum halepense), ragweed (common ragweed, Ambrosia elatior), barnyardgrass (Echinochloa crus-galli), sandbur (southern sandbur, Cenchrus echinatus), arrowleaf sida (Sida rhombifolia), Italian ryegrass (Lolium multiflorum), dayflower (Virginia (VA) dayflower, Commelina virginica), field bindweed (Convolvulus arvensis), morningglory (Ipomoea coccinea), nightshade (eastern black nightshade, Solanum ptycanthum), kochia (Kochia scoparia), yellow nutsedge (Cyperus esculentus), cocklebur (common cocklebur, Xanthium strumarium), smartweed (ladysthumb smartweed, and hairy beggarticks (Bidens pilosa), were planted into a silt loam soil and treated preemergence with test chemicals formulated in a non-phytotoxic solvent mixture which included a surfactant.
(§2) At the same time, plants from these crop and weed species and also horseweed (Canada horseweed, Conyza canadensis), waterhemp_RES1, (ALS & Triazine resistant common waterhemp, Amaranthus rudis), and waterhemp_RES2, (ALS & HPPD resistant common waterhemp, Amaranthus rudis) were planted in pots containing Redi-Earth® planting medium (Scotts Company, 14111 Scottslawn Road, Marysville, Ohio 43041) comprising spaghnum peat moss, vermiculite, wetting agent and starter nutrients were treated with postemergence applications of test chemicals formulated in the same manner. Plants ranged in height from 2 to 18 cm for postemergence treatments (1- to 4-leaf stage). Treated plants and controls were maintained in a greenhouse for 14 to 21 days, after which time all species were compared to controls and visually evaluated. Plant response ratings, summarized in Table E, are based on a scale of 0 to 100 where 0 is no effect and 100 is complete control. A dash (-) response means no test result.

fall panicum = assay: Test E postemergence; format: in vivo, Panicum dichotomiflorum; conditions: Panicum dichotomiflorum, post-emergence, read-out: Plant response rating, Panicum, Fall
Summary of the method: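 Compound in a non-phytotoxic solvent mixture with surfactant was applied preemergence to seeds in silt loam soil, or postemergence to plants 2 to 18 cm tall grown in peat-based potting medium. Plants were kept in a greenhouse for 14 to 21 days, then rated visually against untreated controls on a 0 (no effect) to 100 (complete control) scale.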

speedwell = assay: Test D preemergence; format: in vivo, Veronica persica; conditions: Veronica persica, pre-emergence
Summary of the method: (§3)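 Solvent/surfactant formulations are sprayed pre (silt loam) or post (1–4 leaf plants, 2–18 cm). Plants stay 7–21 days in controlled conditions before a visual 0–100 score is given.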

[1] = tested on: waterhemp_RES2 (ALS & HPPD resistant common waterhemp); assay: Test E postemergence; format: in vivo, Amaranthus rudis; conditions: Amaranthus tuberculatus, post-emergence, read-out: Plant response rating, Waterhemp_RES2
From the text: as §1, §2

waterhemp = assay: Test E postemergence; format: in vivo, Amaranthus rudis; conditions: Amaranthus tuberculatus, post-emergence, read-out: Plant response rating, Waterhemp
From the text: as §1, §2

Brazilian crabgrass = assay: Test E postemergence; format: in vivo, Digitaria horizontalis; conditions: Digitaria horizontalis, post-emergence, read-out: Plant response rating, Crabgrass, Brazil
From the text: as §1, §2

wild mustard = assay: Test D preemergence; format: in vivo, Sinapis arvensis; conditions: Brassica, pre-emergence
Summary of the method: as §3

blackgrass = assay: Test D preemergence; format: in vivo, Alopecurus myosuroides; conditions: Alopecurus myosuroides, pre-emergence
Summary of the method: as §3

chickweed = assay: Test D preemergence; format: in vivo, Stellaria media; conditions: Stellaria media, pre-emergence
Summary of the method: as §3

windgrass = assay: Test D postemergence; format: in vivo, Apera spica-venti; conditions: Apera spica-venti, post-emergence
Summary of the method: as §3

galium = assay: Test D preemergence; format: in vivo, Galium aparine; conditions: Galium, pre-emergence
Summary of the method: as §3

bluegrass = assay: Test D postemergence; format: in vivo, Poa annua; conditions: Poa annua, post-emergence, Postemergence, scale 0 to 100 (0 no effect, 100 complete control), read-out: Plant response rating, Bluegrass
Summary of the method: as §3

Italian ryegrass = assay: Test D postemergence; format: in vivo, Lolium multiflorum; conditions: Lolium multiflorum, post-emergence
Summary of the method: as §3

[2] = Postemergence, 31 g ai/ha, scale 0 to 100
[3] = Postemergence, 62 g ai/ha, scale 0 to 100
[4] = Postemergence, 125 g ai/ha, scale 0 to 100
[5] = postemergence, 8 g ai/ha, scale 0 to 100, 0 no effect, 100 complete control
[6] = postemergence, 16 g ai/ha, scale 0 to 100, 0 no effect, 100 complete control

Clc1cnc(Oc2ccccc2-n2cc(Br)cn2)nc1 [Compound 7, 2-[2-(4-bromo-1H-pyrazol-1-yl)phenoxy]-5-chloropyrimidine]
plant response (crop injury) rating, soybean, 0-100 scale at 31 g/ha (soybean; [2]): 90%
plant response (crop injury) rating, soybean, 0-100 scale at 62 g/ha (soybean; [3]): 98%
plant response (crop injury) rating, soybean, 0-100 scale at 125 g/ha (soybean; [4]): 98%
plant response (crop injury) rating, soybean, 0-100 scale at 8 g/ha (soybean; [5]): 60%
plant response (crop injury) rating, soybean, 0-100 scale at 16 g/ha (soybean; [6]): 80%
pest or weed control at 31 g/ha (fall panicum; [2]): 15%
pest or weed control at 62 g/ha (fall panicum; [3]): 50%
pest or weed control at 125 g/ha (fall panicum; [4]): 0%
pest or weed control at 8 g/ha (fall panicum; [5]): 0%
pest or weed control at 16 g/ha (fall panicum; [6]): 0%
pest or weed control at 16 g/ha (speedwell; 16 g ai/ha, scale 0 (no effect) to 100 (complete control), read-out: Plant response rating, Speedwell): 20%
pest or weed control at 31 g/ha (speedwell; 31 g ai/ha, scale 0 (no effect) to 100 (complete control), read-out: Plant response rating, Speedwell): 50%
pest or weed control at 62 g/ha (speedwell; 62 g ai/ha, scale 0-100, read-out: Plant response rating, Speedwell): 100%
pest or weed control at 125 g/ha (speedwell; 125 g ai/ha, scale 0-100, read-out: Plant response rating, Speedwell): 100%
pest or weed control at 250 g/ha (speedwell; 250 g ai/ha, scale 0-100, read-out: Plant response rating, Speedwell): 100%
pest or weed control at 31 g/ha [1, 2]: 80%
pest or weed control at 62 g/ha [1, 3]: 90%
pest or weed control at 125 g/ha [1, 4]: 95%
pest or weed control at 16 g/ha [1, 6]: 75%
pest or weed control at 31 g/ha (waterhemp; [2]): 90%
pest or weed control at 62 g/ha (waterhemp; [3]): 90%
pest or weed control at 125 g/ha (waterhemp; [4]): 90%
pest or weed control at 8 g/ha (waterhemp; [5]): 70%
pest or weed control at 16 g/ha (waterhemp; [6]): 80%
pest or weed control at 31 g/ha (Brazilian crabgrass; [2]): 10%
pest or weed control at 62 g/ha (Brazilian crabgrass; [3]): 20%
pest or weed control at 125 g/ha (Brazilian crabgrass; [4]): 30%
pest or weed control at 8 g/ha (Brazilian crabgrass; [5]): 0%
pest or weed control at 16 g/ha (Brazilian crabgrass; [6]): 0%
pest or weed control at 16 g/ha (wild mustard; 16 g ai/ha, scale 0 (no effect) to 100 (complete control), read-out: Plant response rating, Mustard, Wild): 20%
pest or weed control at 31 g/ha (wild mustard; 31 g ai/ha, scale 0-100, read-out: Plant response rating, Mustard, Wild): 20%
pest or weed control at 62 g/ha (wild mustard; 62 g ai/ha, scale 0-100, read-out: Plant response rating, Mustard, Wild): 80%
pest or weed control at 125 g/ha (wild mustard; 125 g ai/ha, scale 0-100, read-out: Plant response rating, Mustard, Wild): 90%
pest or weed control at 250 g/ha (wild mustard; 250 g ai/ha, scale 0-100, read-out: Plant response rating, Mustard, Wild): 100%
pest or weed control at 16 g/ha (blackgrass; 16 g ai/ha, scale 0 (no effect) to 100 (complete control), read-out: Plant response rating, Blackgrass): 0%
pest or weed control at 31 g/ha (blackgrass; 31 g ai/ha, scale 0-100, read-out: Plant response rating, Blackgrass): 0%
pest or weed control at 62 g/ha (blackgrass; 62 g ai/ha, scale 0-100, read-out: Plant response rating, Blackgrass): 0%
pest or weed control at 125 g/ha (blackgrass; 125 g ai/ha, scale 0-100, read-out: Plant response rating, Blackgrass): 0%
pest or weed control at 250 g/ha (blackgrass; 250 g ai/ha, scale 0-100, read-out: Plant response rating, Blackgrass): 15%
pest or weed control at 16 g/ha (chickweed; 16 g ai/ha, scale 0 (no effect) to 100 (complete control), read-out: Plant response rating, Chickweed): 0%
pest or weed control at 31 g/ha (chickweed; 31 g ai/ha, scale 0-100, read-out: Plant response rating, Chickweed): 0%
pest or weed control at 62 g/ha (chickweed; 62 g ai/ha, scale 0-100, read-out: Plant response rating, Chickweed): 10%
pest or weed control at 125 g/ha (chickweed; 125 g ai/ha, scale 0-100, read-out: Plant response rating, Chickweed): 90%
pest or weed control at 250 g/ha (chickweed; 250 g ai/ha, scale 0-100, read-out: Plant response rating, Chickweed): 95%
pest or weed control at 16 g/ha (windgrass; 16 g ai/ha, scale 0-100, read-out: Plant response rating, Windgrass): 0%
pest or weed control at 31 g/ha (windgrass; 31 g ai/ha, scale 0 to 100 (0 no effect, 100 complete control), read-out: Plant response rating, Windgrass): 0%
pest or weed control at 62 g/ha (windgrass; 62 g ai/ha, scale 0 to 100 (0 no effect, 100 complete control), read-out: Plant response rating, Windgrass): 0%
pest or weed control at 125 g/ha (windgrass; 125 g ai/ha, scale 0 to 100 (0 no effect, 100 complete control), read-out: Plant response rating, Windgrass): 10%
pest or weed control at 250 g/ha (windgrass; 250 g ai/ha, scale 0 to 100 (0 no effect, 100 complete control), read-out: Plant response rating, Windgrass): 25%
pest or weed control at 16 g/ha (galium; 16 g ai/ha, scale 0 (no effect) to 100 (complete control), read-out: Plant response rating, Galium): 0%
pest or weed control at 31 g/ha (galium; 31 g ai/ha, scale 0-100, read-out: Plant response rating, Galium): 0%
pest or weed control at 62 g/ha (galium; 62 g ai/ha, scale 0-100, read-out: Plant response rating, Galium): 20%
pest or weed control at 125 g/ha (galium; 125 g ai/ha, scale 0-100, read-out: Plant response rating, Galium): 30%
pest or weed control at 250 g/ha (galium; 250 g ai/ha, scale 0-100, read-out: Plant response rating, Galium): 40%
pest or weed control at 16 g/ha (bluegrass; 16 g ai/ha): 0%
pest or weed control at 31 g/ha (bluegrass; 31 g ai/ha): 0%
pest or weed control at 62 g/ha (bluegrass; 62 g ai/ha): 0%
pest or weed control at 125 g/ha (bluegrass; 125 g ai/ha): 10%
pest or weed control at 250 g/ha (bluegrass; 250 g ai/ha): 15%
pest or weed control at 16 g/ha (Italian ryegrass; 16 g ai/ha, scale 0-100, read-out: Plant response rating, Ryegrass, Italian): 0%
pest or weed control at 31 g/ha (Italian ryegrass; 31 g ai/ha, scale 0 to 100 (0 no effect, 100 complete control), read-out: Plant response rating, Ryegrass, Italian): 0%
pest or weed control at 62 g/ha (Italian ryegrass; 62 g ai/ha, scale 0 to 100 (0 no effect, 100 complete control), read-out: Plant response rating, Ryegrass, Italian): 0%
pest or weed control at 125 g/ha (Italian ryegrass; 125 g ai/ha, scale 0 to 100 (0 no effect, 100 complete control), read-out: Plant response rating, Ryegrass, Italian): 0%
pest or weed control at 250 g/ha (Italian ryegrass; 250 g ai/ha, scale 0 to 100 (0 no effect, 100 complete control), read-out: Plant response rating, Ryegrass, Italian): 0%
